Data from patent US12108719B2, “Methods for creating doubled haploid plants” (Monsanto Technology LLC, priority 2015, dated 2024).

Tests used:
[1] = test system: DH0 plants; test: Ears classified by number of DH1 seed produced, first 3 co-dominant ears (Example 4); type: in vivo, maize; set-up: key: Class A ears produced approximately 50 seeds; Class B ears produced approximately 20-49 seeds; Class C ears produced approximately 1-20 seeds; Class 0 ears produced zero seeds; “—” represents a situation where a third ear was not formed by the plant
Source text: When the DH1 ears were harvested in the experiment described in Example 3, four DH0 plants selected randomly from each germplasm were subjected to further scrutiny comprising recording of the approximate number of seeds produced from the first 3 co-dominant ears for each plant. […] In Table 4, ears are assigned to one of 4 categories, depending on the approximate number of seeds they produced: Class A ears produced approximately 50 seeds, Class B ears produced approximately 20-49 seeds, Class C ears produced approximately 1-20 seeds, and Class 0 ears produced zero seeds.

[2] = test system: induced haploid germplasms (A and B); test: Co-dominant ear induction by PBZ soil drench in colchicine-treated haploid maize (Example 1); type: in vivo
Source text: V1-V3 seedlings of two unique F1 hybrid-derived haploid maize lines, derived from: female heterotic group (Germplasm A) or male heterotic group (Germplasm B), were subjected to a bulk colchicine-based chromosome doubling treatment by removing the seedlings from soil or growth media at the V1-V3 growth stage and aligning their stems and wrapping them together along with several wooden rods into bundle a held together by a strip of aluminum foil (approximate foil strip dimensions were 6 in×18 in). The bundled plants were submerged in plant treatment solution comprising 1250 ppm of colchicine in a centrifuge container and then the entire sample was centrifuged at 50 g for 3 min while the shoot apical meristems (SAMs) remained submerged in the plant treatment agent solution.
Following the first centrifugation, the plant treatment solution was decanted and the seedlings subjected to an addition centrifugation at 335 g for 3 min. During the second centrifugation, the rod-wrap bundle supported the seedlings and prevented the SAMs from contacting the reserve treatment agent that was not absorbed by the plant during application of the centrifugal force.
Following the second centrifugation, the plants were removed from the centrifugation container and the rod-wrap bundle and rinsed with water to remove any remaining colchicine solution, and then recovered and tended in a light, humidity, and temperature-controlled greenhouse for several days before being transplanted to a nursery greenhouse. These centrifuge-based treatment methods are described in more detail in International application number PCT/US2015/028955, which is incorporated by reference herein in its entirety, however, standard doubling treatments can also be applied to any of the haploid doubling steps referred to herein.
Following colchicine doubling treatment, 15-20 plants from each germplasm were planted in pots at two different densities; either as single plants per pot (singles), or as two plants per pot (pairs).
Next, each plant received one of two different doses of PBZ, either 50 mL (low dose) or 60 mL (high dose) of a 2.5% PBZ solution (v/v; 0.4% of active ingredient) in water. These two different doses were applied by soil drench at either the V7 or V8 growth stage, which occurred a total of 23 or 26 days after the seedlings had been subjected to chromosome doubling treatment, respectively. A control group of plants received no treatment solution but were otherwise treated exactly as the experimental groups planted as singles. When pollen shed began at the tassels, the average number of silk-producing ears (i.e. co-dominant ears) were counted for each dosage, germplasm, and treatment time and the results summarized in Table. 1.

[3] = test system: haploid mother plant; test: Tiller induction with doubled haploid mother plant (Example 7); type: in vivo, maize
Experimental: A haploid mother plant will be subjected to doubling treatment and thereafter planted in a pot, the soil surrounding the roots drenched with 100 mL of 2.5% of paclobutrazol, and then tended standard maize green house growing conditions for several days. […] One of the resulting daughter tiller plants can be separated from the mother plant, transplanted into a separate pot, and grown via standard green house management procedures to eventually recover a daughter plant with normal haploid morphology.

[4] = test system: Diploid maize plants of a common inbred line; test: Tiller induction in diploids (Example 6); type: in vivo
Experimental: Diploid maize plants of a common inbred line were subjected to a tiller induction treatment comprising drenching the soil surrounding the roots with 100 mL of a 2.5% PBZ solution (v/v; 0.4% of active ingredient) approximately one week after germination and then allowed to grow to sexual maturity in 10-inch pots a greenhouse. A control group of plants were grown under identical circumstances except that they were not subjected to the tiller induction treatment.
Three treatment groups were then formed from the tillers: tillers of the “Co-hab” treatment were allowed to continue growing in the same pot with the mother plant; those of the “-Mother” treatment also remained in the same pot, but the mother plant was removed from the pot; and those of the “Transplanted” treatment group were transplanted from the pot containing the mother plant into separate 10-inch pots, one plant per pot. Any naturally-occurring tillers produced by the control group were allowed to grow in the same pot as the mother plant, similar to the co-hab treatment. All plants were allowed to grow to sexual maturity and self-pollinated when silks and tassels formed. When seed set was complete, the average total number of seeds produced by all plants deriving from the same mother plant seed were counted and plotted in FIG. 3.

[5] = 100 mL 2.5% PBZ soil drench approx. one week after germination

CC(C)(C)[C@H](O)[C@H](Cc1ccc(Cl)cc1)n1cncn1 (relative stereo) [PBZ, (2S,3S)-1-(4-chlorophenyl)-4,4-dimethyl-2-(1,2,4-triazol-1-yl) pentan-3-ol]
Ears classified by the number of DH1 seed they produced ([1]; A, Plant 1, 1st ear): C (Class C ears produced approximately 1-20 seeds)
Ears classified by the number of DH1 seed they produced ([1]; A, Plant 1, 2nd ear): B (Class B ears produced approximately 20-49 seeds)
Ears classified by the number of DH1 seed they produced ([1]; A, Plant 1, 3rd ear): C (Class C ears produced approximately 1-20 seeds)
Ears classified by the number of DH1 seed they produced ([1]; A, Plant 2, 1st ear): C (Class C ears produced approximately 1-20 seeds)
Ears classified by the number of DH1 seed they produced ([1]; A, Plant 2, 2nd ear): A (Class A ears produced approximately 50 seeds)
Ears classified by the number of DH1 seed they produced ([1]; A, Plant 2, 3rd ear): C (Class C ears produced approximately 1-20 seeds)
Ears classified by the number of DH1 seed they produced ([1]; A, Plant 3, 1st ear): C (Class C ears produced approximately 1-20 seeds)
Ears classified by the number of DH1 seed they produced ([1]; A, Plant 3, 2nd ear): C (Class C ears produced approximately 1-20 seeds)
Ears classified by the number of DH1 seed they produced ([1]; A, Plant 3, 3rd ear): B (Class B ears produced approximately 20-49 seeds)
Ears classified by the number of DH1 seed they produced ([1]; A, Plant 4, 1st ear): A (Class A ears produced approximately 50 seeds)
Ears classified by the number of DH1 seed they produced ([1]; A, Plant 4, 2nd ear): C (Class C ears produced approximately 1-20 seeds)
Ears classified by the number of DH1 seed they produced ([1]; A, Plant 4, 3rd ear): 0 (Class 0 ears produced zero seeds)
Ears classified by the number of DH1 seed they produced ([1]; B, Plant 1, 1st ear): C (Class C ears produced approximately 1-20 seeds)
Ears classified by the number of DH1 seed they produced ([1]; B, Plant 1, 2nd ear): A (Class A ears produced approximately 50 seeds)
Ears classified by the number of DH1 seed they produced ([1]; B, Plant 1, 3rd ear): —
Ears classified by the number of DH1 seed they produced ([1]; B, Plant 2, 1st ear): B (Class B ears produced approximately 20-49 seeds)
Ears classified by the number of DH1 seed they produced ([1]; B, Plant 2, 2nd ear): C (Class C ears produced approximately 1-20 seeds)
Ears classified by the number of DH1 seed they produced ([1]; B, Plant 2, 3rd ear): C (Class C ears produced approximately 1-20 seeds)
Ears classified by the number of DH1 seed they produced ([1]; B, Plant 3, 1st ear): C (Class C ears produced approximately 1-20 seeds)
Ears classified by the number of DH1 seed they produced ([1]; B, Plant 3, 2nd ear): A (Class A ears produced approximately 50 seeds)
Ears classified by the number of DH1 seed they produced ([1]; B, Plant 3, 3rd ear): C (Class C ears produced approximately 1-20 seeds)
Ears classified by the number of DH1 seed they produced ([1]; B, Plant 4, 1st ear): C (Class C ears produced approximately 1-20 seeds)
Ears classified by the number of DH1 seed they produced ([1]; B, Plant 4, 2nd ear): A (Class A ears produced approximately 50 seeds)
Ears classified by the number of DH1 seed they produced ([1]; B, Plant 4, 3rd ear): C (Class C ears produced approximately 1-20 seeds)
Ears classified by the number of DH1 seed they produced ([1]; Control A, Plant 1, 1st ear): B (Class B ears produced approximately 20-49 seeds)
Ears classified by the number of DH1 seed they produced ([1]; Control A, Plant 1, 2nd ear): A (Class A ears produced approximately 50 seeds)
Ears classified by the number of DH1 seed they produced ([1]; Control A, Plant 1, 3rd ear): —
Ears classified by the number of DH1 seed they produced ([1]; Control A, Plant 2, 1st ear): C (Class C ears produced approximately 1-20 seeds)
Ears classified by the number of DH1 seed they produced ([1]; Control A, Plant 2, 2nd ear): B (Class B ears produced approximately 20-49 seeds)
Ears classified by the number of DH1 seed they produced ([1]; Control A, Plant 2, 3rd ear): C (Class C ears produced approximately 1-20 seeds)
Ears classified by the number of DH1 seed they produced ([1]; Control A, Plant 3, 1st ear): A (Class A ears produced approximately 50 seeds)
Ears classified by the number of DH1 seed they produced ([1]; Control A, Plant 3, 2nd ear): C (Class C ears produced approximately 1-20 seeds)
Ears classified by the number of DH1 seed they produced ([1]; Control A, Plant 3, 3rd ear): 0 (Class 0 ears produced zero seeds)
Ears classified by the number of DH1 seed they produced ([1]; Control A, Plant 4, 1st ear): B (Class B ears produced approximately 20-49 seeds)
Ears classified by the number of DH1 seed they produced ([1]; Control A, Plant 4, 2nd ear): B (Class B ears produced approximately 20-49 seeds)
Ears classified by the number of DH1 seed they produced ([1]; Control A, Plant 4, 3rd ear): 0 (Class 0 ears produced zero seeds)
Ears classified by the number of DH1 seed they produced ([1]; Control B, Plant 1, 1st ear): C (Class C ears produced approximately 1-20 seeds)
Ears classified by the number of DH1 seed they produced ([1]; Control B, Plant 1, 2nd ear): C (Class C ears produced approximately 1-20 seeds)
Ears classified by the number of DH1 seed they produced ([1]; Control B, Plant 1, 3rd ear): B (Class B ears produced approximately 20-49 seeds)
Ears classified by the number of DH1 seed they produced ([1]; Control B, Plant 2, 1st ear): A (Class A ears produced approximately 50 seeds)
Ears classified by the number of DH1 seed they produced ([1]; Control B, Plant 2, 2nd ear): A (Class A ears produced approximately 50 seeds)
Ears classified by the number of DH1 seed they produced ([1]; Control B, Plant 2, 3rd ear): 0 (Class 0 ears produced zero seeds)
Ears classified by the number of DH1 seed they produced ([1]; Control B, Plant 3, 1st ear): A (Class A ears produced approximately 50 seeds)
Ears classified by the number of DH1 seed they produced ([1]; Control B, Plant 3, 2nd ear): 0 (Class 0 ears produced zero seeds)
Ears classified by the number of DH1 seed they produced ([1]; Control B, Plant 3, 3rd ear): C (Class C ears produced approximately 1-20 seeds)
Ears classified by the number of DH1 seed they produced ([1]; Control B, Plant 4, 1st ear): B (Class B ears produced approximately 20-49 seeds)
Ears classified by the number of DH1 seed they produced ([1]; Control B, Plant 4, 2nd ear): B (Class B ears produced approximately 20-49 seeds)
Ears classified by the number of DH1 seed they produced ([1]; Control B, Plant 4, 3rd ear): C (Class C ears produced approximately 1-20 seeds)
number of co-dominant ears formed per plant ([2]; V7, Germplasm A, planted as pairs, low dose (50 mL 2.5% PBZ)): 3
average EP of high dosage greater than EP of low dosage ([2]; all plants, high vs low dosage): 0.31
high-dose EP average higher than the low-dose ([2]; only the singles): 0.55
minimum increase of EP over control plants ([2]; singles subjected to the low dose): ≥ 1.2 EP
DH1 seeds yielded by daughter tiller plant when selfed ([3]; daughter tiller separated and transplanted): several dozen DH1 seeds
morphology and tiller production of mother plant ([3]; haploid mother plant after doubling treatment, 100 mL of 2.5% paclobutrazol soil drench): shortened internodes and increased tiller production
morphology of mother plants [4, 5]: shortened internodes
tiller production by mother plants [4, 5]: induced the mother plants to produce tillers
average total seeds per plant vs control group ([4]; Transplanted treatment group (tillers transplanted to separate pots)): more than twice the number of seeds as the control group
